Patent US20100240040A1, “METHOD FOR SCREENING FOR SELECTIVE MODULATOR OF THE NF-KB PATHWAY ACTIVATION” (INSTITUT PASTEUR, priority 2007, published 2010)

Experiments:
[1] = target: T1, CC2-LZ dimer (Biot-CC2-LZ/His-CC2-LZ) (Mus musculus, UniProt O88522); assay: HTRF assay, CC2-LZ dimerization induced by ubiquitin binding; settings: added to Biot-CC2-LZ/His-CC2-LZ mixture at nM concentration
T1 construct: made in house; Biot-CC2-LZ by chemical synthesis
Description: (§1) The Homogeneous Time Resolved Fluorescence (HTRF®) assay reagents anti-(His)6 monoclonal antibody labeled with XL665 (MABHis6-XL) and streptavidin-Europium cryptate (streptavidin-EuK) were purchased from CIS-Bio. The His-CC2-LZ peptide (SEQ ID NO: 30 and 31) was purified as described in Agou et al., 2004a and the biotin tagged CC2-LZ peptide (SEQ ID NO: 28 and 29) was chemically synthezised as described in Wyler et al., 2007.
All measurements of fluorescence resonance energy transfer (FRET) were performed using the microplate reader Mithras LB 940 (Berthold Technologies). HTRF® principle
In HTRF experiments, the pure His-CC2-LZ protein was labeled by anti-His-XL665 mAb and biot-CC2-LZ was labeled by streptavidin-EuK. […] Upon excitation of Europium cryptate at 320 nm, FRET occurs between these two fluorophores, and XL665 re-emits a specific long-lived fluorescence at 665 nm.
All experiments were carried out in a black microplate Greiner (200 μl) at 25° C. The excitation wavelength was 320 nm and the fluorescence emissions were measured at 620 nm and at 665 nm to normalize the specific signal. Fluorescence emission was recorded at both wavelengths after an 50 μs delay, which reduces background noise introduced by the media and the free acceptor molecules. The FRET signal is calculated using the following equation: […]

[2] = target: T2, Biot-CC2-LZ (Mus musculus, UniProt O88522); assay: HTRF assay, complex with Biot-CC2-LZ (negative and positive controls); format: binding; settings: each subunit of CC2-LZ at nM concentration, no ubiquitin
T2 construct: made in house; host or cells: chemical synthesis
Description: as §1
In HTRF experiments, the pure His-CC2-LZ protein was labeled by anti-His-XL665 mAb and biot-CC2-LZ was labeled by streptavidin-EuK. Dimerization of His-CC2-LZ and Biot-CC2-LZ leads the donor (Steptavidin-EuK) and the acceptor (anti-His-XL665) into close proximity. Upon excitation of Europium cryptate at 320 nm, FRET occurs between these two fluorophores, and XL665 re-emits a specific long-lived fluorescence at 665 nm.
All experiments were carried out in a black microplate Greiner (200 μl) at 25° C. The excitation wavelength was 320 nm and the fluorescence emissions were measured at 620 nm and at 665 nm to normalize the specific signal. Fluorescence emission was recorded at both wavelengths after an 50 μs delay, which reduces background noise introduced by the media and the free acceptor molecules. The FRET signal is calculated using the following equation:
ΔF=[(R−Rneg)/Rneg]*100 (1) […]

[3] = target: CC2-LZ (Mus musculus, UniProt O88522); assay: Affinity of CC2-LZ dimerization; format: binding
CC2-LZ, sequence (O88522 250-339 limits assumed): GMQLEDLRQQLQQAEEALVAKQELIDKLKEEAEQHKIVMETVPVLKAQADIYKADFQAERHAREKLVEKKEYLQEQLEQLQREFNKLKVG

T1 sequence (O88522 with tags, fused parts or gaps, one chain of several): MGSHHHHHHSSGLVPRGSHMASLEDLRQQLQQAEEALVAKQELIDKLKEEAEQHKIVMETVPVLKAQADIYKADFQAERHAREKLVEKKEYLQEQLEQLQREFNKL

| FRET signal (in words) [1] | FRET signal (in words) [2] | Kd [3] [µM] | Substance |
| --- | --- | --- | --- |
| no FRET signal was detected | – | – | GST: GST protein alone, control |
| – | no FRET signal was observed | 22 | LEDLRQQLQQAEEALVAKQELIDKLKEEAEQHKIVMETVPVLKAQADIYKADFQAERHAREKLVEKKEYLQEQLEQLQREFNKL [CC2-LZ] |
